Results published in the NIST ThermoML archive (doi:10.1021/je8006937).
Several values for one entry are separate records, joined by “and”; a condition that tells them apart may be missing. Equal entries are not always repeated. ± gives the expanded uncertainty stated by the source.

Details: Liquid, Pendant drop shape

Question: Which interfacial tension (281.3 K, 1960 kPa) does the source give for `CCCCn1cc[n+](C)c1.CCOCCOCCOS(=O)(=O)[O-]` [1-butyl-3-methylimidazolium 2-(2-ethoxyethoxy)ethylsulfate] + O=C=O here?
Answer: Its interfacial tension is 23 ± 0.1 mN/m.

Question: What about the interfacial tension (281.3 K, 3680 kPa) of the same compound?
Answer: Its interfacial tension is 10.8 ± 0.1 mN/m.

Question: What about the interfacial tension (281.31 K, 100 kPa) of the same compound?
Answer: Its interfacial tension is 34.5 ± 0.2 mN/m.

Question: And the interfacial tension (281.31 K, 3150 kPa)?
Answer: Its interfacial tension is 15.1 ± 0.1 mN/m.

Question: And the interfacial tension (281.32 K, 1110 kPa)?
Answer: The interfacial tension was 28.2 ± 0.2 mN/m.

Question: What about the interfacial tension (281.48 K, 4300 kPa) of the same compound?
Answer: Its interfacial tension is 4.6 ± 0.1 mN/m.

Question: And the interfacial tension (281.58 K, 5100 kPa)?
Answer: The interfacial tension was 4.5 ± 0.1 mN/m.

Question: And the interfacial tension (281.58 K, 6970 kPa)?
Answer: Its interfacial tension is 4.5 ± 0.1 mN/m.

Question: And the interfacial tension (281.61 K, 9890 kPa)?
Answer: Its interfacial tension is 4 ± 0.1 mN/m.

Question: What about the interfacial tension (281.61 K, 13700 kPa) of the same compound?
Answer: Its interfacial tension is 3.8 ± 0.1 mN/m.

Question: And the interfacial tension (281.63 K, 17000 kPa)?
Answer: The interfacial tension was 3.7 ± 0.1 mN/m.

Question: And the interfacial tension (281.63 K, 19930 kPa)?
Answer: The interfacial tension was 3.5 ± 0.1 mN/m.

Question: And the interfacial tension (281.69 K, 100 kPa)?
Answer: Its interfacial tension is 34.3 ± 0.2 mN/m.

Question: What about the interfacial tension (281.69 K, 1490 kPa) of the same compound?
Answer: The interfacial tension was 25.4 ± 0.1 mN/m.

Question: What about the interfacial tension (281.7 K, 600 kPa) of the same compound?
Answer: Its interfacial tension is 30.6 ± 0.2 mN/m.

Question: What about the interfacial tension (281.7 K, 2830 kPa) of the same compound?
Answer: Its interfacial tension is 17.3 ± 0.1 mN/m.

Question: And the interfacial tension (281.7 K, 4160 kPa)?
Answer: Its interfacial tension is 6.5 ± 0.1 mN/m.

Question: And the interfacial tension (281.84 K, 4340 kPa)?
Answer: Its interfacial tension is 4.9 ± 0.1 mN/m.

Question: What about the interfacial tension (281.86 K, 12130 kPa) of the same compound?
Answer: Its interfacial tension is 4.4 ± 0.1 mN/m.

Question: And the interfacial tension (281.87 K, 5900 kPa)?
Answer: Its interfacial tension is 4.7 ± 0.1 mN/m.

Question: And the interfacial tension (281.91 K, 18060 kPa)?
Answer: The interfacial tension was 3.7 ± 0.1 mN/m.

Question: What about the interfacial tension (295.14 K, 100 kPa) of the same compound?
Answer: Its interfacial tension is 34 ± 0.2 mN/m.

Question: And the interfacial tension (295.2 K, 100 kPa)?
Answer: The interfacial tension was 34.2 ± 0.2 mN/m.

Question: What about the interfacial tension (295.3 K, 1030 kPa) of the same compound?
Answer: The interfacial tension was 29.3 ± 0.2 mN/m.

Question: What about the interfacial tension (295.39 K, 1980 kPa) of the same compound?
Answer: Its interfacial tension is 25 ± 0.1 mN/m.

Question: What about the interfacial tension (295.5 K, 3350 kPa) of the same compound?
Answer: The interfacial tension was 18.8 ± 0.1 mN/m.

Question: And the interfacial tension (295.8 K, 3950 kPa)?
Answer: The interfacial tension was 16.3 ± 0.1 mN/m.

Question: And the interfacial tension (296.03 K, 4960 kPa)?
Answer: Its interfacial tension is 12.4 ± 0.1 mN/m.

Question: And the interfacial tension (296.29 K, 6150 kPa)?
Answer: The interfacial tension was 12.8 ± 0.1 mN/m.

Question: And the interfacial tension (296.31 K, 6630 kPa)?
Answer: Its interfacial tension is 5.8 ± 0.1 mN/m.

Question: And the interfacial tension (296.35 K, 8190 kPa)?
Answer: The interfacial tension was 5.6 ± 0.1 mN/m.

Question: And the interfacial tension (296.42 K, 10120 kPa)?
Answer: The interfacial tension was 5.2 ± 0.1 mN/m.

Question: And the interfacial tension (296.5 K, 14370 kPa)?
Answer: The interfacial tension was 4.8 ± 0.1 mN/m.

Question: What about the interfacial tension (296.53 K, 17640 kPa) of the same compound?
Answer: The interfacial tension was 4.5 ± 0.1 mN/m.

Question: What about the interfacial tension (319.53 K, 100 kPa) of the same compound?
Answer: Its interfacial tension is 33.3 ± 0.2 mN/m.

Question: And the interfacial tension (319.57 K, 2130 kPa)?
Answer: The interfacial tension was 27.7 ± 0.1 mN/m.

Question: What about the interfacial tension (319.58 K, 1030 kPa) of the same compound?
Answer: Its interfacial tension is 30.4 ± 0.2 mN/m.

Question: And the interfacial tension (319.58 K, 3610 kPa)?
Answer: Its interfacial tension is 23.6 ± 0.1 mN/m.

Question: And the interfacial tension (319.59 K, 5010 kPa)?
Answer: Its interfacial tension is 19.5 ± 0.1 mN/m.

Question: What about the interfacial tension (319.6 K, 6190 kPa) of the same compound?
Answer: Its interfacial tension is 16.4 ± 0.1 mN/m.

Question: What about the interfacial tension (319.63 K, 7090 kPa) of the same compound?
Answer: The interfacial tension was 14 ± 0.1 mN/m.

Question: And the interfacial tension (319.69 K, 8100 kPa)?
Answer: The interfacial tension was 12.3 ± 0.1 mN/m.

Question: What about the interfacial tension (319.71 K, 9070 kPa) of the same compound?
Answer: Its interfacial tension is 7.7 ± 0.1 mN/m.

Question: And the interfacial tension (319.78 K, 10070 kPa)?
Answer: Its interfacial tension is 7.9 ± 0.1 mN/m.

Question: And the interfacial tension (319.78 K, 11080 kPa)?
Answer: Its interfacial tension is 8 ± 0.1 mN/m.

Question: What about the interfacial tension (319.79 K, 11720 kPa) of the same compound?
Answer: Its interfacial tension is 7.9 ± 0.1 mN/m.

Question: And the interfacial tension (319.85 K, 14840 kPa)?
Answer: Its interfacial tension is 7.6 ± 0.1 mN/m.

Question: And the interfacial tension (319.91 K, 17840 kPa)?
Answer: Its interfacial tension is 7.1 ± 0.1 mN/m.

Question: What about the interfacial tension (319.94 K, 20870 kPa) of the same compound?
Answer: Its interfacial tension is 6.7 ± 0.1 mN/m.

Question: What does the source list for `CCOCCOCCOS(=O)(=O)[O-].CCn1cc[n+](C)c1` [1-ethyl-3-methylimidazolium 2-(2-ethoxyethoxy)ethylsulfate] + O=C=O?
Answer: interfacial tension (280.25 K, 100 kPa): 36.7 ± 0.2 mN/m and 37.3 ± 0.2 mN/m; interfacial tension (280.26 K, 1170 kPa): 30.3 ± 0.2 mN/m; interfacial tension (280.26 K, 2340 kPa): 22.6 ± 0.1 mN/m; interfacial tension (280.26 K, 3340 kPa): 15.5 ± 0.6 mN/m; interfacial tension (280.28 K, 3950 kPa): 9.8 ± 0.7 mN/m; interfacial tension (280.4 K, 4240 kPa): 6.3 ± 0.4 mN/m; interfacial tension (280.46 K, 5230 kPa): 6.6 ± 0.5 mN/m; interfacial tension (280.46 K, 7030 kPa): 6 ± 0.1 mN/m; interfacial tension (280.49 K, 8960 kPa): 5.8 ± 0.1 mN/m; interfacial tension (280.51 K, 10860 kPa): 5.4 ± 0.1 mN/m; interfacial tension (280.53 K, 12970 kPa): 5.4 ± 0.1 mN/m; interfacial tension (280.54 K, 15110 kPa): 5.1 ± 0.1 mN/m; interfacial tension (280.55 K, 17290 kPa): 5.1 ± 0.1 mN/m; interfacial tension (280.58 K, 20670 kPa): 4.7 ± 0.1 mN/m; interfacial tension (299.4 K, 100 kPa): 36.2 ± 0.2 mN/m; interfacial tension (299.43 K, 4810 kPa): 14.9 ± 0.3 mN/m; interfacial tension (299.43 K, 14740 kPa): 6.6 ± 0.1 mN/m; interfacial tension (299.45 K, 16390 kPa): 6.4 ± 0.1 mN/m; interfacial tension (299.46 K, 17880 kPa): 6.2 ± 0.1 mN/m; interfacial tension (299.47 K, 6680 kPa): 8.6 ± 0.2 mN/m; interfacial tension (299.48 K, 20360 kPa): 6 ± 0.1 mN/m; interfacial tension (299.53 K, 10230 kPa): 7.6 ± 0.1 mN/m; interfacial tension (299.54 K, 12350 kPa): 6.8 ± 0.1 mN/m; interfacial tension (299.55 K, 8330 kPa): 7.9 ± 0.1 mN/m; interfacial tension (319.74 K, 2000 kPa): 28.5 ± 0.2 mN/m; interfacial tension (319.74 K, 3090 kPa): 25.1 ± 0.3 mN/m; interfacial tension (319.74 K, 4040 kPa): 22.2 ± 0.3 mN/m; interfacial tension (319.75 K, 100 kPa): 35.5 ± 0.2 mN/m and 35.4 ± 0.2 mN/m; interfacial tension (319.75 K, 1010 kPa): 31.5 ± 0.2 mN/m; interfacial tension (319.75 K, 5010 kPa): 19.4 ± 0.3 mN/m; interfacial tension (319.76 K, 5950 kPa): 16.5 ± 0.3 mN/m; interfacial tension (319.76 K, 8950 kPa): 7.6 ± 0.2 mN/m; interfacial tension (319.78 K, 7260 kPa): 13.1 ± 0.3 mN/m; interfacial tension (319.87 K, 10740 kPa): 9.8 ± 0.1 mN/m; interfacial tension (319.87 K, 12430 kPa): 8.9 ± 0.1 mN/m; interfacial tension (319.95 K, 14470 kPa): 8.4 ± 0.1 mN/m; interfacial tension (319.98 K, 17410 kPa): 7.8 ± 0.1 mN/m; interfacial tension (320.03 K, 20790 kPa): 7.7 ± 0.1 mN/m
